ChEMBL document CHEMBL1147840, “Synthesis and bioactivity of 4-alkyl(aryl)thioquinazoline derivatives” (Bioorg Med Chem Lett, 2007)

Experiments:
Format in all cases: functional, cell-based
[1] = tested on: PC-3; assay: Antitumor activity against human PC3 cells by MTT method
[2] = tested on: BGC-823; assay: Antitumor activity against human BGC823 cells by MTT method
[3] = tested on: Bcap37; assay: Antitumor activity against human Bcap37 cells by MTT method

In the case of `COc1cc(-c2nnc(Sc3ncnc4ccccc34)o2)cc(OC)c1OC`, the IC50 [1] is reported as 5.6 µM, the IC50 [2] is reported as 34.5 µM and the IC50 [3] is reported as 23.4 µM.

`COc1cc(-c2nnc(Sc3ncnc4ccc(I)cc34)o2)cc(OC)c1OC` gave an IC50 [1] of 8.9 µM, an IC50 [2] of 28.9 µM and an IC50 [3] of 31 µM.

`CCCSc1ncnc2ccc(I)cc12` was tested, and the IC50 [1] was 40.9 µM, the IC50 [2] was 29 µM and the IC50 [3] was 42.1 µM.

With `COc1cccc(Sc2ncnc3ccccc23)c1` the IC50 [1] was 23.1 µM, the IC50 [2] was 45.6 µM and the IC50 [3] was 56.7 µM.

In the case of `CCSc1ncnc2ccc(I)cc12`, the IC50 [1] is reported as 38.9 µM, the IC50 [2] is reported as 31.1 µM and the IC50 [3] is reported as 39 µM.

For `COc1cc(-c2nnc(Sc3ncnc4c(OC)c(OC)c(OC)cc34)o2)cc(OC)c1OC`, the IC50 [1] was 1.8 µM, the IC50 [2] was 39 µM and the IC50 [3] was 20.9 µM.

Work on `COc1cc2ncnc(Nc3cccc(Br)c3)c2cc1OC` yielded an IC50 [1] of 13.7 µM, an IC50 [2] of 6.9 µM and an IC50 [3] of 8.9 µM.

`COc1cc(-c2nnc(Sc3ncnc4ccc(I)cc34)s2)cc(OC)c1OC` gave an IC50 [1] of 12.2 µM, an IC50 [2] of 19 µM and an IC50 [3] of 21 µM.

`CCCCSc1ncnc2ccc(I)cc12` gave an IC50 [1] of 32.1 µM, an IC50 [2] of 29 µM and an IC50 [3] of 31 µM.

`COc1cc(-c2nnc(Sc3ncnc4c(OC)c(OC)c(OC)cc34)s2)cc(OC)c1OC` was tested, and the IC50 [1] was 8.7 µM, the IC50 [2] was 31.2 µM and the IC50 [3] was 34.7 µM.

`C=CCSc1ncnc2ccc(I)cc12` showed an IC50 [1] of 28.8 µM, an IC50 [2] of 33.2 µM and an IC50 [3] of 39.1 µM.

With `COc1cc(-c2nnc(Sc3ncnc4ccccc34)s2)cc(OC)c1OC` the IC50 [1] was 19 µM, the IC50 [2] was 61.2 µM and the IC50 [3] was 50.9 µM.

With `C=CCSc1ncnc2ccccc12` the IC50 [1] was 48 µM, the IC50 [2] was 78.1 µM and the IC50 [3] was 67.9 µM.

`COc1cccc(Sc2ncnc3c(OC)c(OC)c(OC)cc23)c1` showed an IC50 [1] of 8.1 µM, an IC50 [2] of 53.2 µM and an IC50 [3] of 45.6 µM.
